According to patent US7368471B2, “Substituted indole acid derivatives as inhibitors of plasminogen activator inhibitor-1 (PAI-1)” (Wyeth, priority 2001, dated 2008):
Where two headings read alike, the source gives them in different places.

Key:
[1] = molecular target: T1, recombinant human plasminogen activator inhibitor-1 (PAI-1) (Homo sapiens, UniProt P05121); experiment: Modification of the Primary Screen for the PAI-1 Inhibition (IC50); format: biochemical; conditions: footnote b: determined by a modification of the Primary Screen for the PAI-1 Inhibition
T1 construct: purchased Molecular Innovations, Royal Oak, Mich
T1 sequence (P05121 24-402): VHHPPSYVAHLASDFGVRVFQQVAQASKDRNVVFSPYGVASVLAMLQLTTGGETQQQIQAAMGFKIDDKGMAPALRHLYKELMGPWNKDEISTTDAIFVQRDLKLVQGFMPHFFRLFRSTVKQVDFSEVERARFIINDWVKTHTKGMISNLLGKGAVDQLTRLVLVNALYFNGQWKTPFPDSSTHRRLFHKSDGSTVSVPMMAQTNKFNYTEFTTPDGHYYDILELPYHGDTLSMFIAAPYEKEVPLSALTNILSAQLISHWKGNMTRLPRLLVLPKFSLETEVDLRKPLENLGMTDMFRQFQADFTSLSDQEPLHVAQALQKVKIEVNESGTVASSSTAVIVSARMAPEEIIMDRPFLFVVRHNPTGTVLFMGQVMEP
Description: (§1) Primary Screen for the PAI-1 Inhibition
(§2) Test compounds are dissolved in DMSO at a final concentration of 10 mM, then diluted 100× in physiologic buffer. The inhibitory assay is initiated by the addition of the test compound (1-100 μM final concentration, maximum DMSO concentration of 0.2%) in a pH 6.6 buffer containing 140 nM recombinant human plasminogen activator inhibitor-1 (PAI-1; Molecular Innovations, Royal Oak, Mich.). Following a 1 hour incubation at room temperature, 70 nM of recombinant human tissue plasminogen activator (tPA) is added, and the combination of the test compound, PAI-1 and tPA is incubated for an additional 30 minutes. Following the second incubation, Spectrozyme-tPA (American Diagnostica, Greenwich, Conn.), a chromogenic substrate for tPA, is added and absorbance read at 405 nm at 0 and 60 minutes. Relative PAI-1 inhibition is equal to the residual tPA activity in the presence of the test compound and PAI-1. Control treatments include the complete inhibition of tPA by PAI-1 at the molar ratio employed (2:1), and the absence of any effect of the test compound on tPA alone.

human PAI-1 = human PAI-1 (Homo sapiens, UniProt P05121); experiment: Antibody Assay for Determining IC50 of Inhibition of PAI-1 (active PAI-1 bound to tPA-coated plate, 33B8 antibody); format: binding
Chain of human PAI-1 (P05121 24-402): as above
Description: Assay for Determining IC50 of Inhibition of PAI-1
This assay is based upon the non-SDS dissociable interaction between tPA and active PAI-1. Assay plates are initially coated with human tPA (10 μg/ml). Test compounds are dissolved in DMSO at 10 mM, then diluted with physiologic buffer (pH 7.5) to a final concentration of 1-50 μM. Test compounds are incubated with human PAI-1 (50 ng/ml) for 15 minutes at room temperature. The tPA-coated plate is washed with a solution of 0.05% Tween 20 and 0.1% BSA, then the plate is blocked with a solution of 3% BSA. […] The plate is again washed, and a solution of goat anti-mouse IgG-alkaline phosphatase conjugate is added at a 1:50,000 dilution in goat serum. The plate is incubated 30 minutes at room temperature, washed, and a solution of alkaline phosphatase substrate is added. The plate is incubated 45 minutes at room temperature, and color development is determined at OD405nm. […] Results are analyzed using a logarithmic best-fit equation. The assay sensitivity is 5 ng/ml of human PAI-1 as determined from a standard curve ranging from 0-100 ng/ml.

[2] = molecular target: T1, recombinant human plasminogen activator inhibitor-1 (PAI-1); experiment: Primary Screen for the PAI-1 Inhibition (residual tPA activity, Spectrozyme-tPA chromogenic substrate); format: biochemical; conditions: 25 μM test compound
Description: as §1, §2

[3] = footnote a: determined by the Antibody Assay, read-out: IC50

| melting point | IC50 [1] [µM] | IC50 (human PAI-1; [3]) [µM] | Structure (SMILES) | IC50 (human PAI-1) [µM] | inhibition at 25 µM [2] [%] |
| --- | --- | --- | --- | --- | --- |
| 158 to 159 °C | 5.3 |  | O=C(O)C(=O)c1cn(Cc2ccc(F)cc2)c2ccc(-c3ccc(OC(F)(F)F)cc3)cc12 [Example 27, {1-(4-Fluorobenzyl)-5-[4-(trifluoromethoxy)phenyl]-1H-indol-3-yl}(oxo)acetic acid] |  |  |
| 145 to 146 °C (dec.) | 6.5 |  | O=C(O)C(=O)c1cn(Cc2ccccc2)c2ccc(-c3ccc(F)c(Cl)c3)cc12 [Example 15, [1-Benzyl-5-(3-chloro-4-fluorophenyl)-1H-indol-3-yl](oxo)acetic acid] |  |  |
| 153 to 156 °C | 19.4 |  | O=C(O)C(=O)c1cn(Cc2ccccc2)c2c(-c3ccc(F)c(Cl)c3)cccc12 [Example 18, [1-Benzyl-7-(3-chloro-4-fluorophenyl)-1H-indol-3-yl](oxo)acetic acid] |  |  |
| 165 to 166 °C |  | 35 | O=C(O)C(=O)c1cn(Cc2ccc(F)cc2)c2ccc(-c3ccccc3)cc12 [Example 28, [1-(4-Fluorobenzyl)-5-phenyl-1H-indol-3-yl](oxo)acetic acid] |  |  |
| 256 to 257 °C (dec.) | 32 |  | Cn1cc(C(=O)C(=O)O)c2ccc(-c3ccc(C(F)(F)F)cc3)cc21 [Example 2, {1-Methyl-6-[4-(trifluoromethyl)phenyl]-1H-indol-3-yl}(oxo)acetic acid] |  |  |
| 111 to 112 °C |  | 10 | CC(C)(C)c1ccc(Cn2cc(C(=O)C(=O)O)c3cc(-c4ccc(C(C)(C)C)cc4)ccc32)cc1 [Example 36, [1-(4-tert-Butylbenzyl)-5-(4-tert-butylphenyl)-1H-indol-3-yl](oxo)acetic acid] |  |  |
| 186 to 188 °C |  | 19.9 | O=C(O)C(=O)c1cn(Cc2ccccc2)c2cc(-c3cccc(Cl)c3)ccc12 [Example 21, [1-Benzyl-6-(3-chlorophenyl)-1H-indol-3-yl](oxo)acetic acid] |  |  |
| 97 to 98 °C |  | 21.6 | Cc1ccccc1-c1ccc2c(c1)c(C(=O)C(=O)O)cn2Cc1ccc(C(C)(C)C)cc1 [Example 39, [1-(4-tert-Butylbenzyl)-5-(2-methylphenyl)-1H-indol-3-yl](oxo)acetic acid] |  |  |
| 206 to 207 °C |  | 11.5 | O=C(O)C(=O)c1cn(Cc2ccccc2)c2ccc(-c3cc(C(F)(F)F)cc(C(F)(F)F)c3)cc12 [Example 16, {1-Benzyl-5-[3,5-bis(trifluoromethyl)phenyl]-1H-indol-3-yl}(oxo)acetic acid] |  |  |
| 98 to 99 °C | 8.5 |  | CCC(CC)Cn1cc(C(=O)C(=O)O)c2cc(-c3ccc(OC(F)(F)F)cc3)ccc21 [Example 40, {1-(2-Ethylbutyl)-5-[4-(trifluoromethoxy)phenyl]-1H-indol-3-yl}(oxo)acetic acid] |  |  |
|  |  | 13.3 | O=C(O)C(=O)c1cn(CC2CCCCC2)c2ccc(-c3cccc(Cl)c3)cc12 [Example 48, [5-(3-chlorophenyl)-1-(cyclohexylmethyl)-1H-indol-3-yl](oxo)acetic acid] |  |  |
| 192 to 193 °C | 6.8 |  | Cc1ccc(Cn2cc(C(=O)C(=O)O)c3cc(-c4ccc(OC(F)(F)F)cc4)ccc32)cc1 [Example 26, {1-(4-Methylbenzyl)-5-[4-(trifluoromethoxy)phenyl]-1H-indol-3-yl}(oxo)acetic acid] |  |  |
| 248 to 249.5 °C |  | 45.7 | Cc1ccc(Cn2c(CO)c(C(=O)C(=O)[O-])c3cc(-c4ccc(OC(F)(F)F)cc4)ccc32)cc1.[K+] [Example 42, {2-(Hydroxymethyl)-1-(4-methylbenzyl)-5-[4-(trifluoromethoxy)phenyl]-1H-indol-3-yl}(oxo)acetic acid, potassium salt] |  |  |
|  |  |  | O=C(O)C(=O)c1cn(Cc2ccccc2)c2cc(-c3ccc(OC(F)(F)F)cc3)ccc12 [Example 5, {1-Benzyl-6-[4-(trifluoromethoxy)phenyl]-1H-indol-3-yl}(oxo)acetic acid] | 17.3 |  |
| 138 to 139 °C |  | 16.4 | CC(C)(C)c1ccc(Cn2cc(C(=O)C(=O)O)c3cc(-c4cccc(Cl)c4)ccc32)cc1 [Example 37, [1-(4-tert-Butylbenzyl)-5-(3-chlorophenyl)-1H-indol-3-yl](oxo)acetic acid] |  |  |
| 149 °C |  | 10.5 | CCCCn1cc(C(=O)C(=O)O)c2cc(-c3ccc(C(F)(F)F)cc3)ccc21 [Example 33, {1-Butyl-5-[4-(trifluoromethyl)phenyl]-1H-indol-3-yl}(oxo)acetic acid] |  |  |
| 85 to 86 °C |  | 17.2 | CC(=O)OCc1c(C(=O)C(=O)O)c2cc(-c3ccc(OC(F)(F)F)cc3)ccc2n1Cc1ccccc1 [Example 43, {2-[(Acetyloxy)methyl]-1-benzyl-5-[4-(trifluoromethoxy)phenyl]-1H-indol-3-yl}(oxo)acetic acid] |  |  |
| 280 to 282 °C |  | 26.3 | O=C([O-])C(=O)c1c(CO)n(Cc2ccccc2)c2ccc(-c3ccc(OC(F)(F)F)cc3)cc12.[K+] [Example 44, {1-Benzyl-2-(hydroxymethyl)-5-[4-(trifluoromethoxy)phenyl]-1H-indol-3-yl}(oxo)acetic acid, potassium salt] |  |  |
|  | 14.6 |  | COc1cccc(-c2ccc3c(c2)c(C(=O)C(=O)O)cn3Cc2ccc(C(C)(C)C)cc2)c1 [Example 35, [1-(4-tert-Butylbenzyl)-5-(3-methoxyphenyl)-1H-indol-3-yl](oxo)acetic acid] |  |  |

| Structure (SMILES) | melting point | IC50 [1] [µM] | IC50 (human PAI-1; [3]) [µM] | IC50 (human PAI-1) [µM] | inhibition at 25 µM [2] [%] |
| --- | --- | --- | --- | --- | --- |
| O=C(O)C(=O)c1cn(Cc2ccccc2)c2ccc(-c3cccc(OC(F)(F)F)c3)cc12 [Example 22, {1-Benzyl-5-[3-(trifluoromethoxy)phenyl]-1H-indol-3-yl}(oxo)acetic acid] |  |  | 9.7 |  |  |
| Cc1cccc(-c2ccc3c(c2)c(C(=O)C(=O)O)cn3Cc2ccc(C(C)(C)C)cc2)c1 [Example 34, [1-(4-tert-Butylbenzyl)-5-(3-methylphenyl)-1H-indol-3-yl](oxo)acetic acid] |  | 6.2 |  |  |  |
| CCCCn1cc(C(=O)C(=O)O)c2cc(-c3cccc(Cl)c3)ccc21 [Example 30, [1-Butyl-5-(3-chlorophenyl)-1H-indol-3-yl](oxo)acetic acid] | 108 to 109 °C | 16 |  |  |  |
| CCCCn1cc(C(=O)C(=O)O)c2cc(-c3ccc(Cl)cc3)ccc21 [Example 29, [1-Butyl-5-(4-chlorophenyl)-1H-indol-3-yl](oxo)acetic acid] | 136 to 137 °C |  |  | 12.5 |  |
| Cc1ccc(Cn2cc(C(=O)C(=O)O)c3cc(-c4ccccc4)ccc32)cc1 [Example 25, [1-(4-Methylbenzyl)-5-phenyl-1H-indol-3-yl](oxo)acetic acid] | 195 to 196 °C | 14 |  |  |  |
| CC(C)(C)c1ccc(Cn2cc(C(=O)C(=O)O)c3ccc(-c4ccc(OC(F)(F)F)cc4)cc32)cc1 [Example 8, {1-[4-(tert-Butyl)benzyl]-6-[4-(trifluoromethoxy)phenyl]-1H-indol-3-yl}(oxo)acetic acid] |  | 11.2 |  |  |  |
| CC(C)(C)c1ccc(Cn2cc(C(=O)C(=O)O)c3cc(-c4ccc(OC(F)(F)F)cc4)ccc32)cc1 [Example 19, {1-(4-tert-Butylbenzyl)-5-[4-(trifluoromethoxy)phenyl]-1H-indol-3-yl}(oxo)acetic acid] |  | 15.8 |  |  |  |
| O=C(O)c1cn(Cc2ccccc2)c2ccc(-c3ccc(F)c(Cl)c3)cc12 [Example 62, 1-Benzyl-5-(3-chloro-4-fluoro-phenyl)-1H-indole-3-carboxylic acid] | 189 to 194 °C |  |  | 11.2 | 53 |
| O=C(O)C(=O)c1cn(Cc2ccccc2)c2c(-c3ccc(OC(F)(F)F)cc3)cccc12 [Example 17, {1-Benzyl-7-[4-(trifluoromethoxy)phenyl]-1H-indol-3-yl}(oxo)acetic acid] |  |  | 10 |  |  |
